From patent US5936065A, “CS-1 peptidomimetics, compositions and methods of using the same” (Cytel Corporation, priority 1995, dated 1999)
Square brackets hold non-standard residues; d marks the D form. Peptide text beside a SMILES is read from it. * marks the point of attachment. PhAc = O=C(Cc1ccccc1)*

Tests used:
[1] = Retention of potency in PBS containing 10 percent mouse or human serum; type: in vitro ADME; details: PBS at 7.2-7.4 containing 10 percent mouse or human serum; 24 hours
[2] = test system: SJL/J mice; test: Experimental autoimmune encephalomyelitis in mice; type: in vivo; details: 1 mg/mouse intraperitoneally at days 8 and 9; FIG. 6
Procedure: EAE was induced in female SJL/J mice (8 to 14 weeks old) by immunization on day zero with 50 μg of a compound corresponding to positions 139-151 of PLP emulsified in a 1:1 mixture of PBS and complete Freund's adjuvant (CFA). Each mouse was injected with 0.2 ml of the adjuvant emulsion subcutaneously (s.c.) at two sites in the hind flank. All mice received 10^7 killed Bordetella pertussis units in 100 μl were injected intravenously 24 to 72 hours later.
Mice were observed daily, beginning at day 8 for clinical signs of EAE, and disease was scored on a scale of 0-5 as: 0=no disease; 1=floppy tail; 2=moderate hind limb weakness; 3=paraparesis; 4=paraplegis with moderate forelimb weakness; 5=qualdriplegis or premoribund state.
The inhibitor compound, Compound ID No. 896.52, N-phenylacetyl-Leu-Asp-Phe-D-Pro-NH2 was administered intraperitoneally at 1 mg/mouse in 0.2 ml of incomplete Freund's adjuvant at days 8 and 9. A compound having a scrambled sequence [N-phenylacetyl-Asp-Leu-Phe-D-Pro-NH2 ] was similarly administered to serve as a control.
Summed or averaged scores for clinical signs were plotted vs. time. The area under the resulting curves was calculated between day 8 and day 35 to calculate percentage inhibition of EAE by an inhibitor compound. The percent inhibition was calculated as follows:
[…]

[3] = test system: New Zealand white rabbits; test: Rabbit heterotopic cardiac allograft model; type: in vivo; details: for Expression on Coronary Arteries: ICAM-1 / Expression on Coronary Arteries: Macrophages / Expression on Coronary Arteries: T cells / Expression on Coronary Arteries: Total Fibronectin / Expression on Coronary Arteries: VCAM-1 / Expression on Coronary Arteries: MHC Class II: 1 mg/kg s.c., allograft, 7 to 8 days; for Expression on Coronary Arteries: MHC Class II: immunohistochemistry; as to Expression on Coronary Arteries: ICAM-1: key: -: negative; ±: minimal; +: little; ++: moderately abundant; +++: very abundant; as to Expression on Coronary Arteries: Macrophages: key: -: negative; ±: minimal; +: little; ++: moderately abundant; +++: very abundant; as to Expression on Coronary Arteries: T cells: key: -: negative; ±: minimal; +: little; ++: moderately abundant; +++: very abundant; as to Expression on Coronary Arteries: Total Fibronectin: key: -: negative; ±: minimal; +: little; ++: moderately abundant; +++: very abundant
Excerpt: New Zealand white rabbit SPF hearts were allografted into the necks of similar rabbits to assay a graft-vs-host immunorejection model and the affect of a contemplated compound on that immunoinflammatory response.
New Zealand white female rabbits (Charles River Lab., Saint Laurent, Quebec), between 3.5 and 4 kg underwent heterotopic cardiac transplant following an experimental protocol previously described [Alonso et al., Am. J. Pathol., 87:415-442 (1977); Clausell et al., Circulation, 89:2768-2779 (1994)]. The animals were unselected to favor an HLA-mismatch, the host rabbits were Pasteurella-free and the donors, outbred animals. Both host and donor rabbits were fed Purina 5321-0.5 percent cholesterol diet (Research Diets Inc., New Brunswick, N.J.), a strategy that has proven useful in accelerating the process of allograft arteriopathy [Alonso et al., Am. J. Pathol., 87:415-442 (1977)]. The diet was commenced four days prior to the transplant and continued in the recipient of the transplant until the completion of the experimental period.
The technique of heterotopic cardiac transplantation has been previously described [Clausell et al., Circulation, 89:2768-2779 (1994)]. Briefly, a vertical incision was performed in the anterior aspect of the neck of the recipient rabbit and the left common carotid artery and the ipsilateral external jugular vein were isolated. The cardiac allograft was placed in the neck by anastomosing the aorta end-to-side to the recipient's carotid artery and the pulmonary end-to-side to the recipient's external jugular vein, following a total period of ischemia for the donor hearts of approximately 30 minutes. Postoperative care was in compliance with the Principles of Laboratory Animal Care formulated by the Canadian National Society for Medical Research.
Beginning the day of the transplant, the animals were randomized and treated with either scrambled compound (control group) at 1 mg/kg s.c. or the inhibitor compound at 1 mg/kg s.c. The doses of the compounds were empirically extrapolated to the in vivo model based on preliminary in vitro studies, of Table 1. No other immunosuppression therapy was administered. The grafts were monitored daily by palpation and maintained for 7 to 8 days, a previously described endpoint that was associated with myocardial rejection (impaired cardiac contractility) and development of the allograft arteriopathy in this model [Clausell et al., Circulation, 89:2768-2779 (1994)]. A total of fourteen animals were studied in the control (n=7) and treated (n=7) groups.
The animals were sacrificed using a lethal dose of euthanol (480 mg i.v.) (MTC Pharmaceutical, Cambridge, ON), host and donor hearts were removed, and the coronary arteries were perfused with saline through the aorta, followed by light fixation by perfusion with 2 percent paraformaldehyde (Sigma, St, Louis, Mo.). […] Different sections of the hearts were either saved in 10 percent formalin (BDH Inc., Toronto, ON) for light microscopy studies or immediately frozen in O.T.C. Compound Tissue Tek (Miles Inc., Elkart, Ind.) for specific immunohistochemistry studies.
Tissue specimens from the donor hearts were stained with hematoxylin:eosin for histological grading of rejection according to a modified Billingham's criteria [Billingham, Hum. Pathol., 10:367-386 (1979)]. The sections were graded by a pathologist without knowledge of whether the donor hearts came from control or inhibitor compound treated animals.
Three different paraffin-embedded tissue sections from host and donor hearts from both control and treated rabbits were stained by the Movat pentachrome method for light microscopy. Morphometric analysis was performed using a Zeiss microscope attached to a computer-generated video analysis system (Perceptics Inc., NuVision software), as described in Clausell et al., Circulation, 89:2768-2779 (1994). […]

CC(C)C[C@H](NC(=O)Cc1ccccc1)C(=O)N[C@@H](CC(=O)O)C(=O)N[C@@H](Cc1ccccc1)C(=O)N1CCC[C@@H]1C(N)=O [896.52, N-phenylacetyl-Leu-Asp-Phe-D-Pro-NH2] (PhAc-LDF[dP]-NH2)
loss of potency in serum-containing buffer [1]: no loss of potency
clinical signs of EAE [2]: marked improvement in clinical signs
Expression on Coronary Arteries: ICAM-1 [3]: ±
Expression on Coronary Arteries: Macrophages [3]: ±
Expression on Coronary Arteries: T cells [3]: ±
Expression on Coronary Arteries: Total Fibronectin [3]: ±
Expression on Coronary Arteries: VCAM-1 [3]: ±
Expression on Coronary Arteries: MHC Class II [3]: ±
Baseline (rabbit own host heart) of incidence of intimal thickening [3]: 12%
Baseline (rabbit own host heart) of severity of intimal thickening [3]: 12%

CC(C)C[C@H](NC(=O)[C@H](CC(=O)O)NC(=O)Cc1ccccc1)C(=O)N[C@@H](Cc1ccccc1)C(=O)N1CCC[C@@H]1C(N)=O [N-phenylacetyl-Asp-Leu-Phe-D-Pro-NH2, reference compound] (PhAc-DLF[dP]-NH2)
Expression on Coronary Arteries: ICAM-1 [3]: +
Expression on Coronary Arteries: Macrophages [3]: +
Expression on Coronary Arteries: T cells [3]: ++
Expression on Coronary Arteries: Total Fibronectin [3]: ++
Expression on Coronary Arteries: VCAM-1 [3]: +
Expression on Coronary Arteries: MHC Class II [3]: ++
Baseline (rabbit own host heart) of incidence of intimal thickening [3]: 1%
Baseline (rabbit own host heart) of severity of intimal thickening [3]: 12%
